Literature values, collected in patent US20100069410A1 (Emisphere Technologies Inc., priority 2006, published 2010).

Conditions: orally administered, Physicians' Desk Reference 1994

reported oral bioavailability: 15-30%
SMILES: Nc1nc2c(ncn2COCCO)c(=O)[nH]1 [acyclovir, 9-(2-hydroxyethoxymethyl) guanine]
